# Test results taken from article PMC10641831 (Journal of Medicinal Chemistry, 2023).
# Numbered stars: 1 amine (or outer) side, 2 acyl side, 3 side chain; on linkers, the order of the positions; unused ones are H or OH. Bridge positions count the residues as written; N and C are the ends. Square brackets hold non-standard residues; d marks the D form. Peptide text beside a SMILES is read from it. Phe(4-(Z)-phenylazo) = N[C@@H](Cc1ccc(/N=N\c2ccccc2)cc1)C(=O)O; AMPB(E) = O=C(c1ccc(/N=N/c2ccc(CN[*:1])cc2)cc1)[*:2]; X1 = O=C([C@H](Cc1ccc(/N=N/c2ccccc2)cc1)N[*:1])[*:2]; X2 = O=C(c1ccc(/N=N\c2ccc(CN[*:1])cc2)cc1)[*:2]
# Columns and labels:
# hOTR = molecular target: T1, hOTR (Homo sapiens, UniProt P30559); test: IP-One accumulation assay, agonist function, HEK293 cells expressing hOTR; format: cell-based; conditions: for Emax: HEK293, relative to the effect of OT, read-out: OTR Emax ± SEM; for EC50: IP-One, stable HEK293 hOTR, E = thermal equilibrium, Z = PSS after 340 nm, read-out: OTR EC50 ± SEM; for OTR E/Z ratio EC50: ratio of EC50 of E- and Z-isomer; for decrease in potency compared to OT at OTR: EC50 vs OT
# T1 construct: expressed in transfected cells
# T1 sequence (P30559 1-389): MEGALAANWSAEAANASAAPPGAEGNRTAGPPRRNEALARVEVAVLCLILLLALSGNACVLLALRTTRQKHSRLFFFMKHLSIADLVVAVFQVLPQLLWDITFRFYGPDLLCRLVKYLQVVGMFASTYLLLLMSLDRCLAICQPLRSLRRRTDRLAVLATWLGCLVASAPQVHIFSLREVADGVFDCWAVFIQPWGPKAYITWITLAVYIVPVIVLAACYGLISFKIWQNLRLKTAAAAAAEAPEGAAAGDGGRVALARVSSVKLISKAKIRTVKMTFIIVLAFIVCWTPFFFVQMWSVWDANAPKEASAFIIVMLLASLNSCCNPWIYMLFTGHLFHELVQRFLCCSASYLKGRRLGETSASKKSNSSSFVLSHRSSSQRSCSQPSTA
# [1] = Photostationary state by analytical C18-RP-HPLC; format: physicochemical; conditions: for PSS (E → Z): irradiation with 340 nm, HEPES buffer; for PSS (Z → E): irradiation with 420 nm (8–17) or 528 nm (18, 19)
# Procedure: All photoprobes were investigated regarding their photophysical properties in aqueous buffer (pH 7.5), mimicking the conditions of the biological functional assays.
# 1.3.2. Photostationary States
# Photostationary states (PSS) were measured on analytical C18-RP-HPLC (flow: 0.3 mL/min, solvent A: H2O (0.05% TFA), solvent B: MeCN). To determine the PSS of the photoswitches, the samples (in 0.1 mM in HEPES buffer + 1% DMSO, pH 7.5) were irradiated first with 340 nm to get the Z-isomer. Afterwards, the sample was irradiated with 420 nm (8-17) or 528 nm (18 and 19), respectively, to get back to the E-isomer. The samples were measured at the isosbestic points.
# [2] = Thermal half-life of the Z-isomer (UV/vis, 96-well plate); format: physicochemical; conditions: 25 °C; for t1/2 (thermal half-life, Figure S50): 50 µM in HEPES buffer + 0.25% DMSO, pre-irradiated with 340 nm; for t1/2 (thermal half-life Z to E): preirradiation with 340 nm, HEPES buffer pH 7.4
# Description: All photoprobes were investigated regarding their photophysical properties in aqueous buffer (pH 7.5), mimicking the conditions of the biological functional assays. […] Upon irradiation with 340 nm light for 10 s and monitoring via UV/vis spectroscopy, all compounds could be switched to the Z-isomer, reaching the photostationary state (PSS). Compounds 8–17 containing azobenzene could be switched back to the E-isomer by irradiation at 420 nm for 60 s. Compounds 18 and 19 containing arylazopyrazole could be reverted to the E isomer by using 528 nm light. […] The PSS, when switched to the Z-isomer, was consistently good, with a PSS of 81–95%. […] The thermal half-lives of 10 and 12 were also measured at 37 °C, representing the temperature during the biological assays. As expected, the thermal half-lives decreased, however, the ratio of E and Z isomers remained stable during the incubation period of the biological assays (1 h).
# Starting materials and commercial reagents were purchased from Acros, Alfa Aesar, Fisher, Fluka, Fluorochem, Merck (Sigma-Aldrich), TCI and VWR and were used without further purification. Solvents were used in p.a. quality or dried according to common procedures if necessary. All reactions with oxygen- or moisture-sensitive reagents were carried out in glassware that was dried before use by heating under vacuum. Dry nitrogen or argon was used for an inert gas atmosphere. All NMR spectra were measured at room temperature (20 °C) using a Bruker Avance 400 (400 MHz for ^1H and 101 MHz for ^13C) or a Bruker Avance 600 (600 MHz for ^1H and 151 MHz for ^13C) NMR spectrometer. All chemical shifts are reported in δ-scale as parts per million [ppm] (multiplicity, coupling constant J, number of protons) relative to the solvent residual peaks. Coupling constants J are given in hertz [Hz]. Abbreviations used for signal multiplicity: ^1H NMR: s = singlet, d = doublet, dd = doublet of doublets, ddd = doublet of doublets of doublets, dt = doublet of triplets, t = triplet, td = triplet of doublets, q = quartet, and m = multiplet. All mass spectra were recorded on an Agilent Q-TOF 6540 UHD, Finnigan MAT SSQ 710 A, Jeol AccuTOF GCX or ThermoQuest Finnigan TSQ 7000 spectrometer. Absorption spectra were recorded on an UV/vis Agilent Cary 50 spectrometer. Thermal half-lives were measured on a 96-well plate in a Thermo Scientific Multiskan Spectrum. Analytical TLC was performed on silica gel-coated alumina plates (MN precoated TLC-sheets ALUGRAM Xtra SIL G/UV254). Visualization was done using UV light (254 or 366 nm) or staining with ninhydrin solution. Column chromatography was performed on a Biotage Isolera One automated flash purification system with a UV/vis detector. Analytical RP-HPLC was carried out on an Agilent 1220 Infinity LC System (column: P/No 00F-4251-B0, Phenomenex Luna 3 μm C18(2) 100 Å, LC column 150 mm × 2.0 mm). Purification by preparative HPLC was conducted on a preparative HPLC Agilent 1260 Infinity LC System [column: P/No 00G-4253-P0-AX, Phenomenex Luna 10 μm C18(2) 100 Å, LC column 250 mm × 21.2 mm]. The eluent systems were used as specified. After the purification process, solvents were removed by lyophilization. Switching experiments were done with a 340 nm LED (SSC VIOSYS CUD4AF1B, 500 mA, 55 mW), 420 nm LED (ILH-XC01-S410-SC211-WIR200, 800 mA, 440 mW), and 528 nm LED (OSRAM Oslon SSL 80 green, 500 mA, 34 mW). Purity of all photoprobes was >95% as determined by analytical RP-HPLC at 220 nm in DMSO.
# 1.3.4. Thermal Half-lives
# Thermal half-lives were measured in a 96-well plate in a Thermo Scientific Multiskan® Spectrum at 25 °C (and at 37 °C for compounds 10 and 12). The solutions (50 µM in HEPES buffer + 0.25% DMSO) were pre-irradiated with 340 nm. The absorption at 335 nm was measured every 3 h. The data was analyzed using Origin 2021.
# 0,7 1/2 ExpDec1 Fit of Sheet1 B
# Modell ExpDec1 0,35 Modell ExpDec1
# 0,6 Gleichung y = A 1 *e xp (-x/t1 ) + y0 Gleichung y = A 1 *e xp (-x/t1 ) + y0 […]
Compound,Emax (hOTR),EC50 (hOTR),OTR E/Z ratio EC50 (hOTR),decrease in potency compared to OT at OTR (hOTR),PSS (E → Z) [1],PSS (Z → E) [1],"t1/2 (thermal half-life, Figure S50) [2]",t1/2 (thermal half-life Z to E) [2]
CC[C@H](C)[C@@H]1NC(=O)[C@H](Cc2ccc(O)cc2)NC(=O)[C@@H](N)CSSC[C@@H](C(=O)NCc2ccc(/N=N/c3ccc(C(=O)N[C@@H](CC(C)C)C(=O)NCC(N)=O)cc3)cc2)NC(=O)[C@H](CC(N)=O)NC(=O)[C@H](CCC(N)=O)NC1=O [E-11] (H-CYIQNC[AMPB(E)]LG-NH2; disulfide 1-6),75 ± 1%,263 ± 21 nM,2.0,–,–,–,–,–
"[AzbC(m,m)^1,Dap^6]-VP [compound 17]",–,–,–,–,93%,88%,28.6 days,28.6 days
CC[C@H](C)[C@@H]1NC(=O)[C@H](Cc2ccc(O)cc2)NC(=O)[C@@H](N)CSSC[C@@H](C(=O)NCc2ccc(/N=N\c3ccc(C(=O)NCC(N)=O)cc3)cc2)NC(=O)[C@H](CC(N)=O)NC(=O)[C@H](CCC(N)=O)NC1=O [Z-10] (H-CYIQNC[X2]G-NH2; disulfide 1-6),92%,30.7 ± 4 nM,3.1,12 fold,–,–,–,–
CC[C@H](C)[C@@H]1NC(=O)[C@H](Cc2ccc(O)cc2)NC(=O)[C@@H](N)CSSC[C@@H](C(=O)N[C@@H](Cc2ccc(/N=N/c3ccccc3)cc2)C(=O)N[C@@H](CC(C)C)C(=O)NCC(N)=O)NC(=O)[C@H](CC(N)=O)NC(=O)[C@H](CCC(N)=O)NC1=O [E-9] (H-CYIQNC[X1]LG-NH2; disulfide 1-6),89 ± 1%,346 ± 30 nM,2.5,–,–,–,–,–
"[AzpC(o)^1,Dap^6]-VP [compound 18]",–,–,–,–,94%,82%,6.6 days,6.6 days

# Now from value to compound, other results behind:
Emax (hOTR),EC50 (hOTR),OTR E/Z ratio EC50 (hOTR),Compound,decrease in potency compared to OT at OTR (hOTR),PSS (E → Z) [1],PSS (Z → E) [1],"t1/2 (thermal half-life, Figure S50) [2]",t1/2 (thermal half-life Z to E) [2]
90 ± 1%,136 ± 6 nM,2.5,CC[C@H](C)[C@@H]1NC(=O)[C@H](Cc2ccc(O)cc2)NC(=O)[C@@H](N)CSSC[C@@H](C(=O)N[C@@H](Cc2ccc(/N=N\c3ccccc3)cc2)C(=O)N[C@@H](CC(C)C)C(=O)NCC(N)=O)NC(=O)[C@H](CC(N)=O)NC(=O)[C@H](CCC(N)=O)NC1=O [Z-9] (H-CYIQNC[Phe(4-(Z)-phenylazo)]LG-NH2; disulfide 1-6),55 fold,–,–,–,–
35 ± 1%,3500 ± 1890 nM,1.3,CC[C@H](C)[C@@H]1NC(=O)[C@H](Cc2ccc(/N=N\c3ccccc3)cc2)NC(=O)[C@@H](N)CSSC[C@@H](C(=O)N2CCC[C@H]2C(=O)N[C@@H](CC(C)C)C(=O)NCC(N)=O)NC(=O)[C@H](CC(N)=O)NC(=O)[C@H](CCC(N)=O)NC1=O [Z-8] (H-C[Phe(4-(Z)-phenylazo)]IQNCPLG-NH2; disulfide 1-6),–,–,–,–,–
